Test results reported in ChEMBL document CHEMBL5212743, “Selectivity Literature for EUbOPEN Chemogenomics Library wave 3” (2023).
Blank lines part the entries; values can stand above or below the compound they belong to.

Key:
[1] = molecular target: T1, Phosphatidylinositol 5-phosphate 4-kinase type-2 beta (Homo sapiens) (UniProt P78356); assay: Selectivity interaction (KinomeScan (DiscoverX)) EUB0000698a PIP4K2B; conditions: at 10 µM
T1 sequence (whole entry): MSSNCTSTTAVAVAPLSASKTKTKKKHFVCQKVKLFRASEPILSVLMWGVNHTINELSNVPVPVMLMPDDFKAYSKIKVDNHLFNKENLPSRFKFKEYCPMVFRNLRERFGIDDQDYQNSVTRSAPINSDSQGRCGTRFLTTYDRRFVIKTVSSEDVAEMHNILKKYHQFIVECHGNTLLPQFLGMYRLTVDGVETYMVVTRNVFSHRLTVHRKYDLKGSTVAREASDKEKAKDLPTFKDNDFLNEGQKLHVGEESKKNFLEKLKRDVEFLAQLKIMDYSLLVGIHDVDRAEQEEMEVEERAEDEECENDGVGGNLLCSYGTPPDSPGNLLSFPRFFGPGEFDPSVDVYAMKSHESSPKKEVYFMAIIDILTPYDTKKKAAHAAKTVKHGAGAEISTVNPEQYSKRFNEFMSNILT

[2] = molecular target: Dual specificity mitogen-activated protein kinase kinase 1 (Homo sapiens, UniProt Q02750); assay: Selectivity interaction (Kinase panel (University of Dundee)) EUB0000169b MAP2K1; conditions: at 10 µM
[3] = molecular target: Dual specificity tyrosine-phosphorylation-regulated kinase 1A (Homo sapiens, UniProt Q13627); assay: Selectivity interaction (Kinase panel (University of Dundee)) EUB0000169b DYRK1A; conditions: at 10 µM
[4] = tested on: Tyrosine-protein kinase ABL1 (Homo sapiens), P00519 [Q252H]; assay: Selectivity interaction (KinomeScan (DiscoverX)) EUB0000178b ABL1; conditions: at 1 µM
[5] = molecular target: T2, Mitogen-activated protein kinase 15 (Homo sapiens) (UniProt Q8TD08); assay: Selectivity interaction (KinomeScan (DiscoverX)) EUB0000702a MAPK15; conditions: at 1 µM
T2 sequence (whole entry): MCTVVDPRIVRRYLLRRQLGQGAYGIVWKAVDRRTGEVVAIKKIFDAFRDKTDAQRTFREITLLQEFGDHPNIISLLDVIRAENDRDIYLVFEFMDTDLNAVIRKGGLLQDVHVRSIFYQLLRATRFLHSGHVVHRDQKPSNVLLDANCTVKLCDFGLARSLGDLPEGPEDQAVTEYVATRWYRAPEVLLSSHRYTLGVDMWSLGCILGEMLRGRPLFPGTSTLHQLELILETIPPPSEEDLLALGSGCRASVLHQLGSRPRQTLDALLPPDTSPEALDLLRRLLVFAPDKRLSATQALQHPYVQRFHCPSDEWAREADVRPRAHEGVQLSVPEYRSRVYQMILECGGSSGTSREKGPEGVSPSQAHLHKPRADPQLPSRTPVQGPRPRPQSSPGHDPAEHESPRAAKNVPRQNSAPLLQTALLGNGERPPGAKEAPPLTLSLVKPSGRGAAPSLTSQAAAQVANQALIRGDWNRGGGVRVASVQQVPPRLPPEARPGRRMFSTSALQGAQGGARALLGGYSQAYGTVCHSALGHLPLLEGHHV

[6] = molecular target: G protein-coupled receptor kinase 4 (Homo sapiens) (UniProt P32298); assay: Selectivity interaction (KinomeScan (DiscoverX)) EUB0000702a GRK4; conditions: at 1 µM
Aurora kinase A = Aurora kinase A (Homo sapiens, UniProt O14965)
[7] = molecular target: Tyrosine-protein kinase Fer (Homo sapiens, UniProt P16591); conditions: at 1 µM
[8] = molecular target: Tyrosine-protein kinase ABL1 (Homo sapiens, UniProt P00519); conditions: at 1 µM
[9] = molecular target: Proto-oncogene tyrosine-protein kinase ROS (Homo sapiens) (UniProt P08922); conditions: at 1 µM
[10] = molecular target: T3, Tyrosine-protein kinase JAK3 (Homo sapiens) (UniProt P52333); assay: Selectivity interaction (KinomeScan (DiscoverX)) EUB0000138c JAK3; conditions: at 100 nM
T3 sequence (whole entry): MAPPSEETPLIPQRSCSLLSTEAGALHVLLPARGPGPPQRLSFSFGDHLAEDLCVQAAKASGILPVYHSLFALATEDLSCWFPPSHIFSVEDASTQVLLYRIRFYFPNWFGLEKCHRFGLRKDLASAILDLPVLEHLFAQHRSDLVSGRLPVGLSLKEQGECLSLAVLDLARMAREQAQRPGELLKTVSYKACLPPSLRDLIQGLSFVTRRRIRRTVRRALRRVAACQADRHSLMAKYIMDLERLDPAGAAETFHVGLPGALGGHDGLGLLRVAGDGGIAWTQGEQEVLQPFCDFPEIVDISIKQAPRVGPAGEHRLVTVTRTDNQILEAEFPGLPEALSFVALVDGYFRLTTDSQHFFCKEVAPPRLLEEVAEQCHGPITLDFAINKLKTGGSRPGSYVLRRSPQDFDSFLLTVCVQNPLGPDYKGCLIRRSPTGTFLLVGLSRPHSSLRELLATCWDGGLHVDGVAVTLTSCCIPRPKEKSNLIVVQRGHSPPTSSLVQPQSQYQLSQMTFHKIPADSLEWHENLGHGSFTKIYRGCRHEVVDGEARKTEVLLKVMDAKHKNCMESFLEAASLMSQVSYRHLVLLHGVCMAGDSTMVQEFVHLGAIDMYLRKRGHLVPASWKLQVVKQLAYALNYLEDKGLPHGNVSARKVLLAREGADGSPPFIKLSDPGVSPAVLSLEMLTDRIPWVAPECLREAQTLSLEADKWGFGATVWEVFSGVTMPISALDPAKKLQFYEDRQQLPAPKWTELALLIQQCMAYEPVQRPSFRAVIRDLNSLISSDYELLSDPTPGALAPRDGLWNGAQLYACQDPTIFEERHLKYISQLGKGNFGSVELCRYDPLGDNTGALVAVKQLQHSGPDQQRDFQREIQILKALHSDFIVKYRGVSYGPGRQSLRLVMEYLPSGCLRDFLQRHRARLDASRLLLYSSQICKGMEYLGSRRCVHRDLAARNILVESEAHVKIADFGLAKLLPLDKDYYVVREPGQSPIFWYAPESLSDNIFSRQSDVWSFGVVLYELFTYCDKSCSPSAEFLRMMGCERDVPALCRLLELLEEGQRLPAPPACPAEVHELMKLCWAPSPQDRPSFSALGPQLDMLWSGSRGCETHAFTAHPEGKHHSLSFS

Chain of Tyrosine-protein kinase Fer (P16591 whole entry, looked up): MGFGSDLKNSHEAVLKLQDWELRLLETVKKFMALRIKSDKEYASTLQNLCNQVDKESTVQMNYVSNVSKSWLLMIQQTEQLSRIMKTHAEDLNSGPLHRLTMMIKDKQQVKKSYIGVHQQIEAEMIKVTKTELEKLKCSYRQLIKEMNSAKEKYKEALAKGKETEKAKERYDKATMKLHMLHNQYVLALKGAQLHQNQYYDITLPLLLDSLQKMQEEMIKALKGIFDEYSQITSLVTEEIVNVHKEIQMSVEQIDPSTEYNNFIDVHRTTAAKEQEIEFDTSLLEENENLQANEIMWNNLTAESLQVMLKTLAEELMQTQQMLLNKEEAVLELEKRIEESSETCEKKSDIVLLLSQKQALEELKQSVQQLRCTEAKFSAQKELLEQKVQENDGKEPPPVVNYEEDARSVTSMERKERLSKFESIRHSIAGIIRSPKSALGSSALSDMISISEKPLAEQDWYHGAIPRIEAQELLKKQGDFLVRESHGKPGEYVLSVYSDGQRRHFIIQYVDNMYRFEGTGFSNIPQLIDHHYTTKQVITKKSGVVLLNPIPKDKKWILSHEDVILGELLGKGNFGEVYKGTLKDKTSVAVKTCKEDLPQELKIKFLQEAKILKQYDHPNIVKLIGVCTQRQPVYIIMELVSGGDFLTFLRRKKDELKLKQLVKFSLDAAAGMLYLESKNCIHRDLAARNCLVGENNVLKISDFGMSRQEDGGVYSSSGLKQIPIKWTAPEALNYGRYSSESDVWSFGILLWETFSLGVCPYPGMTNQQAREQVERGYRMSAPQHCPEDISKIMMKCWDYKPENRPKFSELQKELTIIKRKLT
Chain of Dual specificity mitogen-activated protein kinase kinase 1 (Q02750 whole entry): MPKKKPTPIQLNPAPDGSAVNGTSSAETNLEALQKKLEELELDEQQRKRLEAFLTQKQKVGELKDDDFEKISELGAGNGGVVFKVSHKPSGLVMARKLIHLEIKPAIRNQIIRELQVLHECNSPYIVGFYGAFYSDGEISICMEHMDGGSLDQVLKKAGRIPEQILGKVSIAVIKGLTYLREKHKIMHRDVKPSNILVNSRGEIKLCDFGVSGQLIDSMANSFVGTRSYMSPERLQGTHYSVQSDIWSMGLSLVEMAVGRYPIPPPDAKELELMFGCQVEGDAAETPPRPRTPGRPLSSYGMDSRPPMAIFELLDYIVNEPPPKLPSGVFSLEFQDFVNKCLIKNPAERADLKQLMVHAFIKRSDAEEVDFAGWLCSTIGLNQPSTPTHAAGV
Chain of Aurora kinase A (O14965 whole entry): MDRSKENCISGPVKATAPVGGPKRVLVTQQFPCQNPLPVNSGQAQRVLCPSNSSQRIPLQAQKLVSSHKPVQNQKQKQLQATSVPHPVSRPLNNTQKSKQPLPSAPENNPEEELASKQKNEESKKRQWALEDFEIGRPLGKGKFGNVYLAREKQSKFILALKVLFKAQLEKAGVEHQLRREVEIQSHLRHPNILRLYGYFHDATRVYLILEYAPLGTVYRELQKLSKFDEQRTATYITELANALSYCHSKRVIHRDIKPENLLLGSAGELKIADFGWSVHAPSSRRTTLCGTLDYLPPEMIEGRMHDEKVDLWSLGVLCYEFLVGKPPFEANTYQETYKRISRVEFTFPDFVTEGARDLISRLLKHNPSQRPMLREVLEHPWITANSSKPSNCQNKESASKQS
Chain of G protein-coupled receptor kinase 4 (Homo sapiens) (P32298 whole entry, looked up): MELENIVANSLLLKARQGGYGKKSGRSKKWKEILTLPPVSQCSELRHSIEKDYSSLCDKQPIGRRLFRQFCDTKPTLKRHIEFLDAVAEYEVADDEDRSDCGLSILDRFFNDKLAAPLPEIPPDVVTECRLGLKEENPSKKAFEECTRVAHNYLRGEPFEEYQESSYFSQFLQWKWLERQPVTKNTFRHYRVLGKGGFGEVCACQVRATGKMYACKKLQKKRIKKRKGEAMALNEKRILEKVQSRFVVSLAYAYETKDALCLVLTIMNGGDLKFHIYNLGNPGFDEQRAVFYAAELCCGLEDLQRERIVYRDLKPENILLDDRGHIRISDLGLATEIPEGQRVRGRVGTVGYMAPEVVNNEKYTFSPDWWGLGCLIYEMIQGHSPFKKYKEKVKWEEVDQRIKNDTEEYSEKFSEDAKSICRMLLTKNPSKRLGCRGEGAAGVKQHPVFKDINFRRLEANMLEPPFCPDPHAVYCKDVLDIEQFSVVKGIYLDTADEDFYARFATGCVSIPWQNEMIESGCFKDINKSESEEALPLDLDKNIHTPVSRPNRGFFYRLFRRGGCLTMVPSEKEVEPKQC
Chain of Proto-oncogene tyrosine-protein kinase ROS (Homo sapiens) (P08922 whole entry): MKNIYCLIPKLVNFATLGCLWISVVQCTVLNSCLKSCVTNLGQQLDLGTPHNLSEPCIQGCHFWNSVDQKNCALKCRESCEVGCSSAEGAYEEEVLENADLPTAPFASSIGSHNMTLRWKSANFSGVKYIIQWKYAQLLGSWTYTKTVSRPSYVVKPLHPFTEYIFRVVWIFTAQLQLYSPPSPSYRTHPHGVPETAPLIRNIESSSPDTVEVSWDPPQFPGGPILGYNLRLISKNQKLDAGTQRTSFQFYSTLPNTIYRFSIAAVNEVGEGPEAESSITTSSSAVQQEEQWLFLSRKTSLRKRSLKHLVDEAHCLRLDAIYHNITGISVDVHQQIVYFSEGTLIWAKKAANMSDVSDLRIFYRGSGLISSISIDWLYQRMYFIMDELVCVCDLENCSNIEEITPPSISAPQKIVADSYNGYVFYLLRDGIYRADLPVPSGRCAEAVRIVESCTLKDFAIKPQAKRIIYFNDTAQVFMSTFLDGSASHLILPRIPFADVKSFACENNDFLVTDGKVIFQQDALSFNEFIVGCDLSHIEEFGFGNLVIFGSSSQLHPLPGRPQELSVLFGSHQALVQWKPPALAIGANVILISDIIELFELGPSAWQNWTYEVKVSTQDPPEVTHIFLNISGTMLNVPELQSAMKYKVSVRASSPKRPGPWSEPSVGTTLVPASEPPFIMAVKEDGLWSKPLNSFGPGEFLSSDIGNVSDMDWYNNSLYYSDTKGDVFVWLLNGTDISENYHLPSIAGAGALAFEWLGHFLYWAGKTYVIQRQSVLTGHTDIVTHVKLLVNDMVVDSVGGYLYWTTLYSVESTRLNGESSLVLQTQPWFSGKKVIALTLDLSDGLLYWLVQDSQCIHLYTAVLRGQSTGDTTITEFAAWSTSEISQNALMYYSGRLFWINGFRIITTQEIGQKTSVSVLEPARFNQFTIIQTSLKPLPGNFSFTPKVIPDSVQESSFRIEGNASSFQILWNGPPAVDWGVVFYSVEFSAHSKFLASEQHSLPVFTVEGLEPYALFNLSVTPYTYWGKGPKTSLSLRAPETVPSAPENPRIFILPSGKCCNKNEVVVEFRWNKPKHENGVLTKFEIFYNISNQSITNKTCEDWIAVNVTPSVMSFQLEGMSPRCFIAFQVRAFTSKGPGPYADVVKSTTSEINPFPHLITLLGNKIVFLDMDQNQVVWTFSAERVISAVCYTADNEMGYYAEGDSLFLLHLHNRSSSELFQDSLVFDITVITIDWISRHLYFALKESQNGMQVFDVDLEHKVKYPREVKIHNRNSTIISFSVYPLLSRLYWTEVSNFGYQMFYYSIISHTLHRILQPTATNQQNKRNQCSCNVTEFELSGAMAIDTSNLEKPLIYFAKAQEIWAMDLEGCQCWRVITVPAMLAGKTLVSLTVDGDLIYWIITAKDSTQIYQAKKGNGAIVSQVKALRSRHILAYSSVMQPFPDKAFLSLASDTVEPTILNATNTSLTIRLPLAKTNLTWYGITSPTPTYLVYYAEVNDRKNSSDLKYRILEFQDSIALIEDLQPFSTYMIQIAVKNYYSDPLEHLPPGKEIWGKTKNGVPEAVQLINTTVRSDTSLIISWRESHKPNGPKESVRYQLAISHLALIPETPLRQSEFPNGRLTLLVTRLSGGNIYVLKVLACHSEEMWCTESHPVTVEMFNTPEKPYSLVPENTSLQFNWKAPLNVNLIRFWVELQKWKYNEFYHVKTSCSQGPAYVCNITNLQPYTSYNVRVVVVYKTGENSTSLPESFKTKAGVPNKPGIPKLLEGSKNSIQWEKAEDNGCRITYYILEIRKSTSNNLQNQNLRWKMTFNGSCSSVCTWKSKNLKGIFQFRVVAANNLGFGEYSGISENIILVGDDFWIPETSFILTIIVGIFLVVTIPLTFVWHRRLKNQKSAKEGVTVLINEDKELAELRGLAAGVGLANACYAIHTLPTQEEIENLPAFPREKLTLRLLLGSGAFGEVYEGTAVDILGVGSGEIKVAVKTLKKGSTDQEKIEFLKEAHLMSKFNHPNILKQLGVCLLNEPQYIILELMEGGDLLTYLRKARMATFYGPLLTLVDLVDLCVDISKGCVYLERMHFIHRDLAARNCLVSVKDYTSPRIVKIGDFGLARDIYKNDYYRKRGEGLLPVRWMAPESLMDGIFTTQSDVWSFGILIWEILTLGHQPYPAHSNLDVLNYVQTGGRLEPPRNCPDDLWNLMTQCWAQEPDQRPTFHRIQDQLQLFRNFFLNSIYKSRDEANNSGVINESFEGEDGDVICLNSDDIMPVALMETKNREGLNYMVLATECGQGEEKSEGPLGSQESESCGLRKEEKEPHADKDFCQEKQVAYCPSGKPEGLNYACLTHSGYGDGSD

- % of control [1]: 6.6%
SMILES: COc1cc2ncn(-c3cc(OCc4ccccc4C(F)(F)F)c(C(N)=O)s3)c2cc1OC [GW843682X]

- % of control [2]: 115%
- % of control [3]: 72%
SMILES: CC[C@@H]1C(=O)N(C)c2cnc(Nc3ccc(C(=O)NC4CCN(C)CC4)cc3OC)nc2N1C1CCCC1

- % of control [4]: 6.8%
SMILES: CN1C(=O)c2sccc2N(C)c2nc(Nc3ccc(S(N)(=O)=O)cc3)ncc21

- % of control [6]: 10%
SMILES: CN(c1ccnc(CNc2nc(Nc3ccc4c(c3)CC(=O)N4)ncc2C(F)(F)F)n1)S(C)(=O)=O [PF-00911705]
- % of control [5]: 4.8%

SMILES: CCOc1cn(-c2ccc(F)cc2C)nc1C(=O)Nc1ccc(Oc2ccnc3cc(OC)c(OC)cc23)c(F)c1
- IC50 (Aurora kinase A): 36 nM
- % of control [7]: < 10%
- % of control [8]: < 10%
- % of control [9]: < 10%

- % of control [10]: 8.2%
SMILES: CNC(=O)c1ccc(Nc2ncc(C(F)(F)F)c(NCc3nccnc3N(C)S(C)(=O)=O)n2)cc1 [DEFACTINIB]
